Values quoted from earlier work as cited in patent US8735408B2, “Solid forms of 3-(4-(aminomethyl)-1-(5-methyl-7H-pyrrolo[2,3-d]pyrimidin-4-yl)piperidine-4-carboxamido)phenyl dimethylcarbamate” (Lexicon Pharmaceuticals, Inc., priority 2010, dated 2014).

Settings: models of ophthalmic disease; see US-2009-0264450-A1

Q: Which “effect on intraocular pressure” value does the source give for `Cc1c[nH]c2ncnc(N3CCC(CN)(C(=O)Nc4cccc(OC(=O)N(C)C)c4)CC3)c12` [3-(4-(aminomethyl)-1-(5-methyl-7H-pyrrolo[2,3-d]pyrimidin-4-yl)piperidine-4-carboxamido)phenyl dimethylcarbamate] here?
A: decrease intraocular pressure
